# Key:
# [1] = tested on: Enterococcus faecalis Enfa_29212; assay: MIC, broth microdilution (NCCLS); assay type: cell-based; settings: in µg/mL (unit assumed); for MIC: Table 10, Strain ID E (Table 8): Enterococcus faecalis Enfa_29212
# Summary of the method: (§1)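 NCCLS broth microdilution with 2-fold serial drug dilutions (methanol stocks diluted in water); inoculum 3×10^5–7×10^5 CFU/ml in CAMHB, with 2-5% lysed horse blood for S. pneumoniae. Incubation 18-24 h at 35° C., ambient air, except S. pneumoniae (5-10% CO2). MIC is lowest concentration preventing visible growth.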
# [2] = tested on: Haemophilus influenzae Hain_49247; assay: MIC, broth microdilution (NCCLS); assay type: cell-based; settings: unit assumed; for MIC: Table 10, Strain ID H (Table 8): Haemophilus influenzae Hain_49247
# [3] = tested on: Staphylococcus aureus Stau_29213; assay: MIC, broth microdilution (NCCLS); assay type: cell-based; settings: in µg/mL (unit assumed); for MIC: Table 10, Strain ID A (Table 8): Staphylococcus aureus Stau_29213
# Summary of the method: as §1
# [4] = tested on: Staphylococcus epidermidis Step_14990; assay: MIC, broth microdilution (NCCLS); assay type: cell-based; settings: in µg/mL (unit assumed); for MIC: Table 10, Strain ID C (Table 8): Staphylococcus epidermidis Step_14990
# Summary of the method: as §1
# [5] = tested on: Staphylococcus epidermidis Step_f50654; assay: MIC, broth microdilution (NCCLS); assay type: cell-based; settings: in µg/mL (unit assumed); for MIC: Table 10, Strain ID D (Table 8): Staphylococcus epidermidis Step_f50654
# Summary of the method: as §1
# [6] = tested on: Streptococcus pneumoniae Stpn_Erm S 4297; assay: MIC, broth microdilution (NCCLS); assay type: cell-based; settings: for MIC: Table 10, Strain ID R (Table 8): Streptococcus pneumoniae Stpn_Erm S 4297
# Summary of the method: as §1
# [7] = tested on: Streptococcus pneumoniae Stpn_Mef S 3427; assay: MIC, broth microdilution (NCCLS); assay type: cell-based; settings: Table 10, Strain ID Q (Table 8): Streptococcus pneumoniae Stpn_Mef S 3427; in µg/mL (unit assumed)
# Summary of the method: as §1
# [8] = tested on: Streptococcus pyogenes Stpy_8668; assay: MIC, broth microdilution (NCCLS); assay type: cell-based; design: MIC, strain ID G: unit not given beside the values; settings: for MIC: Table 10, Strain ID G (Table 8): Streptococcus pyogenes Stpy_8668
# Summary of the method: as §1
# [9] = tested on: Streptococcus pneumoniae Stpn_49619; assay: MIC, broth microdilution (NCCLS); assay type: cell-based; design: MIC, strain ID M: unit not given beside the values; settings: for MIC: Table 10, Strain ID M (Table 8): Streptococcus pneumoniae Stpn_49619
# Summary of the method: as §1
# [10] = tested on: Streptococcus pneumoniae Stpn_297-749; assay: MIC, broth microdilution (NCCLS); assay type: cell-based; design: MIC, strain ID N: unit not given here; settings: for MIC: Table 10, Strain ID N (Table 8): Streptococcus pneumoniae Stpn_297-749
# Summary of the method: as §1
# [11] = tested on: Streptococcus pneumoniae Stpn_280-962; assay: MIC, broth microdilution (NCCLS); assay type: cell-based; design: MIC, strain ID O: unit not given beside the values; settings: for MIC: Table 10, Strain ID O (Table 8): Streptococcus pneumoniae Stpn_280-962
# Summary of the method: as §1
# [12] = In vivo pharmacokinetic study in rats, plasma (IV and PO); design: species or system Sprague-Dawley rats; settings: rat; for F, PO: PO = 15 mg/kg; for half-life / AUC / clearance / Vd: male, Sprague-Dawley; for half-life: 5 mg/kg, read-out: t1/2, IV Plasma (converted); for clearance / Vd: intravenous; for Vd: read-out: Vss
# Procedure: (§2) Animal Models. A total of 54 male Sprague-Dawley rats, weighing 200 grams in average, were evaluated for pharmacokinetic studies of representative pyridyl substituted ketolides. Rats were under overnight food restriction and received water ad libitum. Rats were acclimated for approximately 5 days before antibiotic administration.
# (§3) Antibiotic Administration. Rats were given bolus administration through (IV) and oral (PO) routes. Representative pyridyl substituted ketolides and telithromycin, for comparison, were diluted in 0.85% saline to a concentration of 15.0 mg/ml, and the resulting pH was adjusted using 1N acetic acid until the compound was in solution. Approximately 200 microliters of the compound solution was administered to the rats. The target dose for IV and PO administration was 5 mg/kg and 15 mg/kg, respectively.
# (§4) Sample Collection. Plasma and whole lung samples were collected from the rats. Plasma samples were obtained from blood samples by centrifugation at 3000 RPM for 10 min. Heparin was added in the plasma as an anticoagulant. Whole lung samples were homogenized in deionized water. Samples were stored at −80° C. A total of 9 time points were collected in triplicate at 0.083, 0.25, 0.5, 1, 2, 4, 6, 8, and 24 hrs. Ketolide concentrations in plasma and lung were determined by well-established non-GLP LC-MS-MS methods. PK parameters were estimated from the raw bioanalytical data using WinNolin software (Version 4.0, Pharsight Corporation, CA). […] All representative compounds were compared to telithromycin.
# [13] = In vivo pharmacokinetic study in rats, whole lung (IV and PO); settings: male, Sprague-Dawley, 5 mg/kg, rat; for half-life: IV, whole lung, read-out: t1/2, IV Lung (converted); for Kp: lung/plasma, iv, read-out: L/P ratio, IV
# Procedure: as §2, §3, §4
# [14] = plasma, IV, dose IV = 5 mg/kg (Compound XIV: IV = 15)
Structure (SMILES),MIC [1],MIC [2] [µg/mL],MIC [3],MIC [4],MIC [5],MIC [6],MIC [7],MIC [8],MIC [9],MIC [10],MIC [11],"F, PO [12] [%]",half-life [13] [h],Kp [13],MIC ([6]; unit assumed) [µg/mL],"half-life ([12]; IV, plasma) [h]","AUC [12, 14] [ng·h/mL]",clearance ([12]; plasma) [mL/min/kg],Vd ([12]; plasma) [L/kg],further results
"CC[C@H]1OC(=O)[C@H](C)C(=O)[C@H](C)[C@@H](O[C@@H]2O[C@H](C)C[C@H](N(C)C)[C@H]2O)[C@](C)(OC)C[C@@H](C)C(=O)[C@H](C)[C@H]2N(CCCCn3cnc(-c4cccnc4)c3)C(=O)O[C@]12C [Telithromycin, telithromycin, reference compound]",0.1-0.2,3.13,0.1-0.2,0.1-0.2,0.1-0.2,=0.1,0.1-0.2,=0.05,=0.05,=0.05,=0.05,11,1.3,16,,,,,,"MIC, strain ID E ([1]; strain ID E, broth microdilution): 0.1-0.2; MIC, strain ID H ([2]; strain ID H, broth microdilution): 3.13 µg/mL; MIC, strain ID A ([3]; strain ID A, broth microdilution): 0.1-0.2; MIC, strain ID C ([4]; strain ID C, broth microdilution): 0.1-0.2; MIC, strain ID D ([5]; strain ID D, broth microdilution): 0.1-0.2; MIC, strain ID Q ([6]; strain ID Q, broth microdilution, in µg/mL (unit assumed)): 0.1-0.2; MIC, strain ID G ([8]; strain ID G, broth microdilution): =0.05; MIC, strain ID M ([9]; strain ID M, broth microdilution): =0.05; MIC, strain ID N ([10]; strain ID N, broth microdilution): =0.05; MIC, strain ID O ([11]; strain ID O, broth microdilution): =0.05; AUC, IV ([12]; IV, dose IV = 5 mg/kg (Compound XIV: IV = 15)): 2500 ng·h/mL; t1/2, IV Plasma ([12]; IV, plasma): 1.0 h"
CC[C@H]1OC(=O)[C@@](C)(F)C(=O)[C@H](C)[C@@H](OC2O[C@H](C)C[C@H](N(C)C)[C@H]2O)[C@@](C)(OC)C[C@@H](C)C(=O)[C@H](C)[C@H]2N(CCCCn3cnc(-c4ccc(C)nc4)c3)C(=O)O[C@]12CC (some centres unmarked) [XIV],0.2,6.25,0.2,0.2,0.4,,0.1,=0.05,=0.05,=0.05,=0.05,43,3.6,83,0.1,2.3,3300,70,13,
C=C[C@]12OC(=O)N(CCCCn3cnc(-c4ccc(OC)nc4)c3)[C@@H]1[C@@H](C)C(=O)[C@H](C)C[C@](C)(OC)[C@H](OC1O[C@H](C)C[C@H](N(C)C)[C@H]1O)[C@@H](C)C(=O)[C@@H](C)C(=O)O[C@@H]2CC (some centres unmarked) [XVIII],0.1,6.25,0.2,0.2,0.2,,0.2,=0.05,=0.05,=0.05,=0.05,51,3.1,110,0.1,1.7,2600,91,11,
C=C[C@]12OC(=O)N(CCCCn3cnc(-c4ccc(C)nc4)c3)[C@@H]1[C@@H](C)C(=O)[C@H](C)C[C@](C)(OC)[C@H](OC1O[C@H](C)C[C@H](N(C)C)[C@H]1O)[C@@H](C)C(=O)[C@@H](C)C(=O)O[C@@H]2CC (some centres unmarked) [XVI],0.1,6.25,0.2,0.2,0.2,=0.05,0.1,=0.05,=0.05,=0.05,=0.05,35,3.4,80,,1.6,2100,115,14,

# Reference: patent US7332476B2, “Pyridyl substituted ketolide antibiotics” (Novartis AG, priority 2003, dated 2008)
